In brackets after ≈: the same amount, converted by molar mass. Several values for one entry are separate records, joined by “and”; a condition that tells them apart may be missing. Equal values may be shown once.
Assays:
[1] = molecular target: T1, murine PDXP/PGP hybrid (Mus musculus, UniProt P60487+Q8CHP8); assay: PG dephosphorylation by PDXP/PGP hybrid protein; format: biochemical
T1 construct: consisting of the PGP cap domain (amino acids 114–233) fused to the PDXP core domain; His6 (N, cleaved yes); made in house; host or cells: Escherichia coli BL21 (DE3), pETM11
T1 sequence (P60487 1-100): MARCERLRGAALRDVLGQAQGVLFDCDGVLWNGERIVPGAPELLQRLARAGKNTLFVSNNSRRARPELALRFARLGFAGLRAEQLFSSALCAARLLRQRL
T1 sequence (Q8CHP8 114-233): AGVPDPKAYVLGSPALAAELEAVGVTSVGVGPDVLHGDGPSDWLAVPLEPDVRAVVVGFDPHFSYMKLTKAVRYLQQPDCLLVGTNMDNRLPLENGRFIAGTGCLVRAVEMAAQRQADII
T1 sequence (P60487 208-292): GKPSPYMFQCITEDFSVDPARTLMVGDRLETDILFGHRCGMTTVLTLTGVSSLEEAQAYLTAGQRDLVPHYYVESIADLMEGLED

[2] = molecular target: T2, murine PGP-WT (Mus musculus, UniProt Q8CHP8); assay: Isothermal titration calorimetry, PGP-WT; format: binding; conditions: ITC; for Kd: murine PGP
T2 construct: His6 (N, cleaved yes); made in house; host or cells: Escherichia coli BL21 (DE3), pETM11, co-expressed with groES-groEL-tig
T2 sequence (Q8CHP8 1-321): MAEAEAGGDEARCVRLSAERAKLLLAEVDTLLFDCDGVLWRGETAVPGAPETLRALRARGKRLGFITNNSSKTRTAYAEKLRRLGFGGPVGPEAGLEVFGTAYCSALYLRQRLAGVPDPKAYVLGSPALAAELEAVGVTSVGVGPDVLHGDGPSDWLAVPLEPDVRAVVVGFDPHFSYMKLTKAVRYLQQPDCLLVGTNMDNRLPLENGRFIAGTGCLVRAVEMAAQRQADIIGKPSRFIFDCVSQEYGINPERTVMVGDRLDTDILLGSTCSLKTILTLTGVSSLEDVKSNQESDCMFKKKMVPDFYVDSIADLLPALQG
Experimental: Purified murine PGP-WT or PGP-P127E was dialyzed overnight against ITC buffer (30 mM HEPES, 30 mM NaCl, 5 mM MgCl2, 1 mM tris(2-carboxyethyl)phosphine/TCEP; pH 7.5). All calorimetric measurements were performed at 25 °C on an ITC200 microcalorimeter (GE Healthcare). Experiments were conducted with a fixed concentration of 2% DMSO. […] To reduce the effects of ligand leakage from the syringe during baseline equilibration, the heat release of a single 1.2 μL injection was recorded prior to the actual titration experiment, and discarded during data analysis with Nitpic 2.0.7[45]. To determine background heats of dilution, control experiments of ligand into buffer, buffer into protein and buffer into buffer titrations were performed.

[3] = molecular target: T3, PGP^WT (Mus musculus, UniProt Q8CHP8); assay: Differential scanning fluorimetry (Thermofluor); format: binding
T3 construct: His6 (N, cleaved yes); made in house; host or cells: Escherichia coli BL21 (DE3), pETM11, co-expressed with groES-groEL-tig
T3 sequence (Q8CHP8 1-321): T2 sequence (Q8CHP8 1-321)

[4] = physchem; conditions: organic solvent or mixture
[5] = molecular target: T4, murine PGP (Mus musculus, UniProt Q8CHP8); assay: biochemical
T4 sequence (Q8CHP8 1-321): T2 sequence (Q8CHP8 1-321)

[6] = molecular target: T5, murine PDXP (Mus musculus, UniProt P60487); assay: PDXP activity towards pyridoxal 5'-phosphate (PLP); conditions: phosphatase PDXP; species M.m.; substrate PLP; n.s. = no significant inhibition detectable
T5 sequence (P60487 1-292): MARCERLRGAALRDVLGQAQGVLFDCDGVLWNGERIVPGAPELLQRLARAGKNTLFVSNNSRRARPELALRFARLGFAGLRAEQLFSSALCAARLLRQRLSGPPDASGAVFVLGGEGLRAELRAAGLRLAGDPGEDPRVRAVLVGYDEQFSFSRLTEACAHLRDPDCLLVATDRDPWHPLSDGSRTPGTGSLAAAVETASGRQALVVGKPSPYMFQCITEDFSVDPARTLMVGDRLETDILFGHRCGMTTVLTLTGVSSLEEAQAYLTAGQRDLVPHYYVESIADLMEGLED

[7] = molecular target: T4, murine PGP; assay: IC50 determination, murine PGP, pNPP dephosphorylation
[8] = molecular target: T6, PGP (Mus musculus, UniProt Q8CHP8); assay: Steady state kinetics of PG dephosphorylation in presence of CP1-3
T6 sequence (Q8CHP8 1-321): T2 sequence (Q8CHP8 1-321)

[9] = PG dephosphorylation, increasing CP concentrations

remaining activity at 16 µM ([1]; activity, control = 100, CP log[M] -4.79588): 1.8%
remaining activity at 4 µM ([1]; activity, control = 100, CP log[M] -5.39794): 13.3%
remaining activity at 1 µM ([1]; activity, control = 100, CP log[M] -6): 41.6%
remaining activity at 0.5 µM ([1]; activity, control = 100, CP log[M] -6.30103): 58.4%
remaining activity at […] ([1]; activity, control = 100, CP log[M] -6.60206): 73.5%
remaining activity at 0.125 µM ([1]; activity, control = 100, CP log[M] -6.90309): 84.1%
remaining activity at 0.0625 µM ([1]; activity, control = 100, CP log[M] -7.20412): 89.4%
remaining activity at 0.015625 µM ([1]; activity, control = 100, CP log[M] -7.80618): 103%
IC50 ([1]; phosphatase PDXP/PGP, species M.m., substrate PG): 970 ± 20 nM
Kd ([2]; 25 °C, mean ± S.E.M., n = 3): 430 nM
Kd ([2]; single replicates): 500 nM and 320 nM and 460 nM
TM ([3]; Inhibitor 0.244141 µM): 66.6 °C
TM ([3]; Inhibitor 0.488281 µM): 66.7 °C
TM ([3]; Inhibitor 0.976562 µM): 67.0 °C
TM ([3]; Inhibitor 1.95312 µM): 67.3 °C
TM ([3]; Inhibitor 3.90625 µM): 68.1 °C
TM ([3]; Inhibitor 7.8125 µM): 69.0 °C
TM ([3]; Inhibitor 15.625 µM): 70.4 °C
TM ([3]; Inhibitor 31.25 µM): 71.2 °C
TM ([3]; Inhibitor 62.5 µM): 72.1 °C
TM ([3]; Inhibitor 125 µM): 72.8 °C
TM ([3]; Inhibitor 250 µM): 73.4 °C
solubility [4]: 50 mM (≈ 19.7 mg/mL)
IC50 [5]: 810 nM and 1000 nM
IC50 [6]: n.s.
IC50 [7]: 13500 ± 2510 nM
remaining activity at 10 µM ([7]; read-out: M.m PGP on pNPP, activity, control = 100.00, CP log[M] -5): 45.5%
remaining activity at 5 µM ([7]; read-out: M.m PGP on pNPP, activity, control = 100.00, CP log[M] -5.30103): 61.5%
remaining activity at […] ([7]; read-out: M.m PGP on pNPP, activity, control = 100.00, CP log[M] -5.60206): 74.3%
remaining activity at 80 µM ([7]; read-out: M.m PGP on pNPP, activity, control = 100.00, Log CP3 [M] -4.09691): 12.6%
remaining activity at 40 µM ([7]; read-out: M.m PGP on pNPP, activity, control = 100.00, Log CP3 [M] -4.39794): 20.3%
remaining activity at 20 µM ([7]; read-out: M.m PGP on pNPP, activity, control = 100.00, Log CP3 [M] -4.69897): 33.2%
remaining activity at 1.25 µM ([7]; read-out: M.m PGP on pNPP, activity, control = 100.00, Log CP3 [M] -5.90309): 85.2%
remaining activity at 0.625 µM ([7]; read-out: M.m PGP on pNPP, activity, control = 100.00, Log CP3 [M] -6.20412): 88.3%
remaining activity at 0.3125 µM ([7]; read-out: M.m PGP on pNPP, activity, control = 100.00, Log CP3 [M] -6.50515): 93.8%
remaining activity at 0.15625 µM ([7]; read-out: M.m PGP on pNPP, activity, control = 100.00, Log CP3 [M] -6.80618): 98.4%
remaining activity at 0.078125 µM ([7]; read-out: M.m PGP on pNPP, activity, control = 100.00, Log CP3 [M] -7.10721): 101%
mode of PGP inhibition [8]: competitive inhibitors
vmax ([8]; CP 1.0 µM): 50.8 ± 4.1 µmol/min/mg
vmax ([8]; CP 2.0 µM): 54.7 ± 4.9 µmol/min/mg
vmax ([8]; CP 4.0 µM): 54.3 ± 11.9 µmol/min/mg
effect on vmax (reduction) [8, 9]: without affecting vmax
increase of KM [8, 9]: ~ 3 fold
Structure (SMILES): O=C(O)c1cc(Nc2ccccc2C(=O)O)nc(Nc2ccccc2C(=O)O)n1 [CP3]
dG ([2]; single replicates): -8.598 kcal/mol and -8.862 kcal/mol and -8.651 kcal/mol
dH ([2]; single replicates): -6.466 kcal/mol and -5.835 kcal/mol and -6.568 kcal/mol
dS ([2]; single replicates): 7.151 cal/Mol*K and 10.151 cal/Mol*K and 6.986 cal/Mol*K
PGP activity ([8]; 1 µM CP3, PG 50 µM): 2.463 µmol Pi/min/mg and 2.403 µmol Pi/min/mg and 1.502 µmol Pi/min/mg
PGP activity ([8]; 1 µM CP3, PG 100 µM): 5.226 µmol Pi/min/mg and 4.205 µmol Pi/min/mg
PGP activity ([8]; 1 µM CP3, PG 200 µM): 10.3316 µmol Pi/min/mg and 9.671 µmol Pi/min/mg and 8.89 µmol Pi/min/mg
PGP activity ([8]; 1 µM CP3, PG 300 µM): 14.7802 µmol Pi/min/mg and 14.2395 µmol Pi/min/mg and 12.9778 µmol Pi/min/mg
PGP activity ([8]; 1 µM CP3, PG 400 µM): 17.1234 µmol Pi/min/mg and 17.6642 µmol Pi/min/mg and 16.5827 µmol Pi/min/mg
PGP activity ([8]; 1 µM CP3, PG 500 µM): 20.9086 µmol Pi/min/mg and 20.1877 µmol Pi/min/mg and 22.1704 µmol Pi/min/mg
PGP activity ([8]; 1 µM CP3, PG 600 µM): 22.1704 µmol Pi/min/mg and 21.0889 µmol Pi/min/mg and 23.7926 µmol Pi/min/mg
PGP activity ([8]; 1 µM CP3, PG 700 µM): 23.4321 µmol Pi/min/mg and 22.7111 µmol Pi/min/mg and 25.4148 µmol Pi/min/mg
PGP activity ([8]; 1 µM CP3, PG 800 µM): 25.7753 µmol Pi/min/mg and 22.1704 µmol Pi/min/mg and 24.3333 µmol Pi/min/mg
PGP activity ([8]; 2 µM CP3, PG 100 µM): 4.445 µmol Pi/min/mg and 3.364 µmol Pi/min/mg and 4.265 µmol Pi/min/mg
PGP activity ([8]; 2 µM CP3, PG 200 µM): 8.469 µmol Pi/min/mg and 7.448 µmol Pi/min/mg
PGP activity ([8]; 2 µM CP3, PG 300 µM): 12.437 µmol Pi/min/mg and 10.4543 µmol Pi/min/mg and 11.8963 µmol Pi/min/mg
PGP activity ([8]; 2 µM CP3, PG 400 µM): 15.6815 µmol Pi/min/mg and 12.7975 µmol Pi/min/mg and 14.7802 µmol Pi/min/mg
PGP activity ([8]; 2 µM CP3, PG 500 µM): 18.7457 µmol Pi/min/mg and 18.5654 µmol Pi/min/mg and 18.3852 µmol Pi/min/mg
PGP activity ([8]; 2 µM CP3, PG 600 µM): 19.6469 µmol Pi/min/mg and 20.7284 µmol Pi/min/mg
PGP activity ([8]; 2 µM CP3, PG 700 µM): 20.9086 µmol Pi/min/mg and 21.8099 µmol Pi/min/mg and 21.0889 µmol Pi/min/mg
PGP activity ([8]; 2 µM CP3, PG 800 µM): 21.4494 µmol Pi/min/mg and 22.3506 µmol Pi/min/mg and 22.7111 µmol Pi/min/mg
PGP activity ([8]; 4 µM CP3, PG 100 µM): 3.4839 µmol Pi/min/mg and 2.463 µmol Pi/min/mg and 3.424 µmol Pi/min/mg
PGP activity ([8]; 4 µM CP3, PG 200 µM): 6.547 µmol Pi/min/mg and 5.706 µmol Pi/min/mg and 6.728 µmol Pi/min/mg
PGP activity ([8]; 4 µM CP3, PG 300 µM): 9.553 µmol Pi/min/mg and 7.39 µmol Pi/min/mg and 12.7975 µmol Pi/min/mg
PGP activity ([8]; 4 µM CP3, PG 400 µM): 12.437 µmol Pi/min/mg and 10.4543 µmol Pi/min/mg and 15.321 µmol Pi/min/mg
PGP activity ([8]; 4 µM CP3, PG 500 µM): 15.6815 µmol Pi/min/mg and 15.5012 µmol Pi/min/mg and 17.484 µmol Pi/min/mg
PGP activity ([8]; 4 µM CP3, PG 600 µM): 16.763 µmol Pi/min/mg and 19.1062 µmol Pi/min/mg
PGP activity ([8]; 4 µM CP3, PG 700 µM): 16.763 µmol Pi/min/mg and 18.0247 µmol Pi/min/mg and 21.8099 µmol Pi/min/mg
PGP activity ([8]; 4 µM CP3, PG 800 µM): 17.3037 µmol Pi/min/mg and 18.2049 µmol Pi/min/mg and 22.5309 µmol Pi/min/mg

Source: PMC9652372, “Glycolytic flux control by drugging phosphoglycolate phosphatase” (Nature Communications, 2022)
